We go through three molecules from paper PMC9121441 (Molecular pharmaceutics, 2019).

Read-outs that look alike come from different tables or passages of the source.

The target of data set [1] is T1, CYP2B6 (Homo sapiens, UniProt P20813).
T1 sequence (P20813 1-491): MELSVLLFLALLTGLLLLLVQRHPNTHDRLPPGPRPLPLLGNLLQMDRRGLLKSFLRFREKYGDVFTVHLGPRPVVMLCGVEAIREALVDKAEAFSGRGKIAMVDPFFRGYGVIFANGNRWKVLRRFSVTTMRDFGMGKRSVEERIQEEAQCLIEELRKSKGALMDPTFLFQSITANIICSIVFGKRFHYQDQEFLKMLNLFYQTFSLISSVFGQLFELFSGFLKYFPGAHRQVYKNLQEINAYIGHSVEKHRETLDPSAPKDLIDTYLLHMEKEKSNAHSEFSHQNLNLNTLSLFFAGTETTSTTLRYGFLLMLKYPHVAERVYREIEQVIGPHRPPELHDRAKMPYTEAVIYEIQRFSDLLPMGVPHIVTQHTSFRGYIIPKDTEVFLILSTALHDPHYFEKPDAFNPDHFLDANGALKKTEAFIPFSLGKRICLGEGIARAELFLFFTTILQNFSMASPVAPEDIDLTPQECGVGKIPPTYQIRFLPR
The conditions noted are these: human liver microsomes; cited from earlier work. A general note: Microsomes from liver hold many membrane-bound enzymes, among them those of drug oxidation.

For data set [2], the target named is T1, CYP2B6. Put plainly: Ketamine demethylation measured by norketamine formation. The class given is in vitro ADME. The conditions noted are these: for Km at 10 min: human, pH 7.4, Km.
Data set [3] deals with T1, CYP2B6. The experiment in a line: Ketamine demethylation measured by formaldehyde formation. The conditions noted are these: product formaldehyde.
For data set [4] the following is noted: oral ketamine, first-pass metabolism; cited from earlier work.
The mark [5] stands for this setting: N-demethylation, product S-norketamine.
Where [6] appears, read: N-demethylation, product R-norketamine.

In the case of `CN[C@]1(c2ccccc2Cl)CCCCC1=O` [S-ketamine], the Km (in general, the concentration of substrate that gives half-maximal velocity) at CYP2B6 [1] is 44 µM. Also, the Km at 10 min on CYP2B6 [2] (setting [5]) is 10 ± 1 µM.

On to `CN[C@@]1(c2ccccc2Cl)CCCCC1=O` [R-ketamine], for which the figures for the Vmax on CYP2B6 [3] (N-demethylation) and at CYP2B6 [2] (setting [6]) were 92 ± 2 pmol・min^−1・pmol CYP^−1 and 65 ± 1 pmol・min^−1・pmol CYP^−1, respectively. Also, the Clint stood at 6.2 ml・min^–1・nmol P450^–1 on CYP2B6 [3] (in vitro intrinsic clearance Vmax/Km) and 5.7 ml・min^–1・nmol P450^–1 on CYP2B6 [2] (Vmax/Km, product R-norketamine). The Km on CYP2B6 [2] (setting [6]) was 11 ± 1 µM.

For the molecule `CNC1(c2ccccc2Cl)CCCCC1=O` (stereo not shown) [ketamine, 2-(2-chlorophenyl)-2-(methylamino)cyclohexan-1-one], in data set [4], the oral bioavailability is 15%. Besides, the Km at 10 min on CYP2B6 [2] (setting [6]) was found to be 4 ± 1 µM; at CYP2B6 [2] (setting [5]) it was 5 ± 1 µM.
